This note sets out measurements from ChEMBL document CHEMBL5465560, “Selectivity Literature for EUbOPEN Chemogenomic Library” (2024).

In test [1] the target is Ribosomal protein S6 kinase beta-1 (Homo sapiens, UniProt P23443). Briefly: Selectivity interaction (Upstate Kinase Profiler service (Millipore)) EUB0000056c RPS6KB1. The note with it: at 1 µM.
The target in test [2] is Serine/threonine-protein kinase OSR1 (Homo sapiens) (UniProt O95747). As to conditions: at 10 µM.
Test [3] addresses Myosin light chain kinase 2, skeletal/cardiac muscle (Homo sapiens) (UniProt Q9H1R3). Briefly: Selectivity interaction (KinomeScan (DiscoverX)) EUB0001079a MYLK2. As to conditions: at 1 µM.
For test [4], the target named is Mitogen-activated protein kinase kinase kinase 14 (Homo sapiens) (UniProt Q99558). Briefly: Selectivity interaction (KinomeScan (DiscoverX)) EUB0001079a MAP3K14. The note with it: at 1 µM.
For test [5], the target named is T1, Phosphatidylinositol 5-phosphate 4-kinase type-2 beta (Homo sapiens) (UniProt P78356).
T1 sequence (whole entry): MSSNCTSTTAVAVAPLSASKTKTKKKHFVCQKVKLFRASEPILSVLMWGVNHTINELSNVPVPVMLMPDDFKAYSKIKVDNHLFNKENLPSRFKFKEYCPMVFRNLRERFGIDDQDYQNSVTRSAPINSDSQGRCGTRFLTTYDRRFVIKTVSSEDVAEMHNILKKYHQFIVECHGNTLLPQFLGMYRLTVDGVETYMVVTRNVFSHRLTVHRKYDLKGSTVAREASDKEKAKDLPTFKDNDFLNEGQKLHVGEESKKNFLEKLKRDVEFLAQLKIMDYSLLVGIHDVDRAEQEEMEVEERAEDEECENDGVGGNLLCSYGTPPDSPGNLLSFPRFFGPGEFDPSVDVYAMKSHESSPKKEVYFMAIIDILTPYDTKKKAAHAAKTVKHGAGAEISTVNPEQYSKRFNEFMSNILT
Briefly: Selectivity interaction (KinomeScan (DiscoverX)) EUB0001079a PIP4K2B. The note with it: at 1 µM.

The target in test [6] is Mitogen-activated protein kinase kinase kinase kinase 4 (Homo sapiens, UniProt O95819). Briefly: Selectivity interaction (KinomeScan (DiscoverX)) EUB0000092b MAP4K4. As to conditions: at 10 µM.
Mitogen-activated protein kinase kinase kinase kinase 4, sequence (O95819 2-1239 limits assumed): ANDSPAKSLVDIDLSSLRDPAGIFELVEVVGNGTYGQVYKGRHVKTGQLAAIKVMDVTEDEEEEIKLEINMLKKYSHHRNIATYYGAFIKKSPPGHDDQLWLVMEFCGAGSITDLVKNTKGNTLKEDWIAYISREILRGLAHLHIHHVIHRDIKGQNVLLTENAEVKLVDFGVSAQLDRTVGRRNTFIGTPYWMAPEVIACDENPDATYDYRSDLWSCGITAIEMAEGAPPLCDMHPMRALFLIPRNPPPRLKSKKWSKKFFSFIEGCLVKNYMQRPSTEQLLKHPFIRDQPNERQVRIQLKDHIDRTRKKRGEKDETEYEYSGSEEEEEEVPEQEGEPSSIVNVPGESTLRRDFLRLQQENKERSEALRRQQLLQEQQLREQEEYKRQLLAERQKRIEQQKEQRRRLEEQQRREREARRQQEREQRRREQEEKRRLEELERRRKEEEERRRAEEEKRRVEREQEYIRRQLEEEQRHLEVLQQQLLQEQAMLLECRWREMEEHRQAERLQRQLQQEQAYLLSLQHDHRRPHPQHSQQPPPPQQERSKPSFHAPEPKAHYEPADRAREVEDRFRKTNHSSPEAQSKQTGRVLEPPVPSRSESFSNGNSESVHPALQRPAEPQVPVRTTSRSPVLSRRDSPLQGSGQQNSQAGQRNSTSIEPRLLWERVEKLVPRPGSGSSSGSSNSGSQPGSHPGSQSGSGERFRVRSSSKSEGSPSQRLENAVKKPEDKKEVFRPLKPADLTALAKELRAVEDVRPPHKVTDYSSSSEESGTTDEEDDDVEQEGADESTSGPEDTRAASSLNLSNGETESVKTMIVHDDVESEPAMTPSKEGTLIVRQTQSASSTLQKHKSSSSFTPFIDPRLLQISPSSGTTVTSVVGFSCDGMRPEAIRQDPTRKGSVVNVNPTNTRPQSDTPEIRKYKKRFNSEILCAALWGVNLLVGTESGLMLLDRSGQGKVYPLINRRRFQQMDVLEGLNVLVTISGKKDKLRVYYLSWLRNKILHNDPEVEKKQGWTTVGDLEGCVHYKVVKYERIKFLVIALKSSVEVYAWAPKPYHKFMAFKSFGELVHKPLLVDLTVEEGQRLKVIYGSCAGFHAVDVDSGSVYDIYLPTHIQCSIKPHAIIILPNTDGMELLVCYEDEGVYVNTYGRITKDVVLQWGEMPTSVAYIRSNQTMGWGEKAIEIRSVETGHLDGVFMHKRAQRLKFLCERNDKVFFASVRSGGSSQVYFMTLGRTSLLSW
For test [7], the target named is T2, Tyrosine-protein kinase JAK3 (Homo sapiens) (UniProt P52333).
T2 sequence (whole entry): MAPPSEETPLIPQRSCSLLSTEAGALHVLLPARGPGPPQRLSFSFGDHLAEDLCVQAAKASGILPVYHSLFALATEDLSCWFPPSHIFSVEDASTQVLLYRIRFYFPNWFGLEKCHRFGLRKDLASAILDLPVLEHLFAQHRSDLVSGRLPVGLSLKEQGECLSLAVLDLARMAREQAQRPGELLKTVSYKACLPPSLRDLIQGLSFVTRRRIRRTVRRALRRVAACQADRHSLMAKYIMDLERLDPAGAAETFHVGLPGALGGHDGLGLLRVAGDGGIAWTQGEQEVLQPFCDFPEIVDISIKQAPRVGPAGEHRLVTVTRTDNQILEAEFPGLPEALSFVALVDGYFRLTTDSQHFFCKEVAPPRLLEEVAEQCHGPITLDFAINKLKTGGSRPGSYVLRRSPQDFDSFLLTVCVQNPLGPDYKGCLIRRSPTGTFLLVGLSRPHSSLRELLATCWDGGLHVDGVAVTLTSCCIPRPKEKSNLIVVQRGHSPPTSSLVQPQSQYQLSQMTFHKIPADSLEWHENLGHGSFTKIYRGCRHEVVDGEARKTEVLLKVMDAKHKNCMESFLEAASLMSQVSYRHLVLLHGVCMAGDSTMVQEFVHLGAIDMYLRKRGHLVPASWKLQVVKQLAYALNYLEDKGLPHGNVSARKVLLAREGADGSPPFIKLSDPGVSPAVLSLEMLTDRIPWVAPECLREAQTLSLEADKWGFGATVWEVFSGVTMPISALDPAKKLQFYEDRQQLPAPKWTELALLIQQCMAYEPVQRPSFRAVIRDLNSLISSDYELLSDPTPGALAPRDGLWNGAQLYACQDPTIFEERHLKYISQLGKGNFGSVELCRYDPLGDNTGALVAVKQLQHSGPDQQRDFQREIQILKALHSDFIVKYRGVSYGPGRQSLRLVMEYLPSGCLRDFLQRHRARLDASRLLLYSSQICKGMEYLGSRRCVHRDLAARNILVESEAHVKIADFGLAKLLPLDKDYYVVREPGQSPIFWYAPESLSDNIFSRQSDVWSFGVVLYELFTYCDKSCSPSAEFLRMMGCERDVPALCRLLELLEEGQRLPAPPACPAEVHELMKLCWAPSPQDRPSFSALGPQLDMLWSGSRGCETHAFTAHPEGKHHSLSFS
Briefly: Selectivity interaction (KinomeScan (DiscoverX)) EUB0001049a JAK3. The note with it: at 1 µM.

In test [8] the target is T3, Mitogen-activated protein kinase 12 (Homo sapiens) (UniProt P53778).
T3 sequence (whole entry): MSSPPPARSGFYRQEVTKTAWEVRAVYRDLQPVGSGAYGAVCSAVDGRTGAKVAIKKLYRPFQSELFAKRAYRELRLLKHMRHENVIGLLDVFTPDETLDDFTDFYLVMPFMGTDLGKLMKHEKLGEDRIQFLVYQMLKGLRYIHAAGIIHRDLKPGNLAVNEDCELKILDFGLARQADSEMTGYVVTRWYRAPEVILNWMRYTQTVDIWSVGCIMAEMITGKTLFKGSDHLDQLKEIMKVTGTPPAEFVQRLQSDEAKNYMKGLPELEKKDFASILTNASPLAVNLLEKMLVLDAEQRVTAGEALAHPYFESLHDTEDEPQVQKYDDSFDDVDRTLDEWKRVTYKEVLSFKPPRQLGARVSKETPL
Briefly: Selectivity interaction (KinomeScan (DiscoverX)) EUB0001049a MAPK12. As to conditions: at 1 µM.

Test [9] deals with Ephrin type-A receptor 5 (Homo sapiens) (UniProt P54756). Briefly: Selectivity interaction (KinomeScan (DiscoverX)) EUB0001049a EPHA5. The note with it: at 1 µM.
Ephrin type-A receptor 5 (Homo sapiens), sequence (P54756 whole entry): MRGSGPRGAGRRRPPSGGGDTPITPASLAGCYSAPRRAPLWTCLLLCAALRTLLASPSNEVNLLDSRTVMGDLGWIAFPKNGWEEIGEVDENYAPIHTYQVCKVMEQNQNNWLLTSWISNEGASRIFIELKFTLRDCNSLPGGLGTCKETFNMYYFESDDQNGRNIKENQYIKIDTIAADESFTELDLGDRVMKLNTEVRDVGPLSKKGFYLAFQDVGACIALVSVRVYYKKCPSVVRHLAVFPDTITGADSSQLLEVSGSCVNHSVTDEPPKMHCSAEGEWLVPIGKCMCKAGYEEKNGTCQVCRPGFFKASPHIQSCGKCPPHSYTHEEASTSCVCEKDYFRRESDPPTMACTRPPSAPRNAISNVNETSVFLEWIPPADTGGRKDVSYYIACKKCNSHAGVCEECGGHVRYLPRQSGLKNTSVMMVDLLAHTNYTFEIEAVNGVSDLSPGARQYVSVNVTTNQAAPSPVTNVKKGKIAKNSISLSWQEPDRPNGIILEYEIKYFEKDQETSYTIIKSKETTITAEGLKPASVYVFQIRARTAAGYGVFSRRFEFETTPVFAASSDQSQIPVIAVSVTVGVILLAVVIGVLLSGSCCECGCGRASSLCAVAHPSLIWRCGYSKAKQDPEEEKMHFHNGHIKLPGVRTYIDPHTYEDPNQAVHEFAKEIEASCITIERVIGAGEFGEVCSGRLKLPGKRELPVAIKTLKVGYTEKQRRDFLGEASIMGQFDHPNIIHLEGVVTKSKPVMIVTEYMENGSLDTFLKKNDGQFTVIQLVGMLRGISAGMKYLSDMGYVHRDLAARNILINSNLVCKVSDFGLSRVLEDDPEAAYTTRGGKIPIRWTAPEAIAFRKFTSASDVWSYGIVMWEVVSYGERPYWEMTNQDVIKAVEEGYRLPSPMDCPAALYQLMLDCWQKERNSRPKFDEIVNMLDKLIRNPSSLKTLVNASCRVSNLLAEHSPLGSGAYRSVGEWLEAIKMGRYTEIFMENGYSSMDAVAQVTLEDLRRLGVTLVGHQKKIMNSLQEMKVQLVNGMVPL
Test [10] concerns the target Non-receptor tyrosine-protein kinase TYK2 (Homo sapiens, UniProt P29597). Briefly: Selectivity interaction (KinomeScan (DiscoverX)) EUB0000695a TYK2. The note with it: at 100 nM.
Test [11] has as its target Tyrosine-protein kinase JAK1 (Homo sapiens, UniProt P23458). Briefly: Selectivity interaction (KinomeScan (DiscoverX)) EUB0000607a JAK1. As to conditions: at 10 µM.
Test [12] addresses Tyrosine-protein kinase HCK (Homo sapiens) (UniProt P08631). Briefly: Selectivity interaction (KinomeScan (DiscoverX)) EUB0000229b HCK. As to conditions: at 10 µM.
The target in test [13] is MAP/microtubule affinity-regulating kinase 3 (Homo sapiens) (UniProt P27448). Briefly: Selectivity interaction (ActivX KiNativ screen (ex vivo kinase selectivity in human PBMCs)) EUB0001619a MARK3. In kind it is cell-based. As to conditions: PBMC, at 1 µM.
MAP/microtubule affinity-regulating kinase 3 (Homo sapiens), sequence (P27448 whole entry, looked up): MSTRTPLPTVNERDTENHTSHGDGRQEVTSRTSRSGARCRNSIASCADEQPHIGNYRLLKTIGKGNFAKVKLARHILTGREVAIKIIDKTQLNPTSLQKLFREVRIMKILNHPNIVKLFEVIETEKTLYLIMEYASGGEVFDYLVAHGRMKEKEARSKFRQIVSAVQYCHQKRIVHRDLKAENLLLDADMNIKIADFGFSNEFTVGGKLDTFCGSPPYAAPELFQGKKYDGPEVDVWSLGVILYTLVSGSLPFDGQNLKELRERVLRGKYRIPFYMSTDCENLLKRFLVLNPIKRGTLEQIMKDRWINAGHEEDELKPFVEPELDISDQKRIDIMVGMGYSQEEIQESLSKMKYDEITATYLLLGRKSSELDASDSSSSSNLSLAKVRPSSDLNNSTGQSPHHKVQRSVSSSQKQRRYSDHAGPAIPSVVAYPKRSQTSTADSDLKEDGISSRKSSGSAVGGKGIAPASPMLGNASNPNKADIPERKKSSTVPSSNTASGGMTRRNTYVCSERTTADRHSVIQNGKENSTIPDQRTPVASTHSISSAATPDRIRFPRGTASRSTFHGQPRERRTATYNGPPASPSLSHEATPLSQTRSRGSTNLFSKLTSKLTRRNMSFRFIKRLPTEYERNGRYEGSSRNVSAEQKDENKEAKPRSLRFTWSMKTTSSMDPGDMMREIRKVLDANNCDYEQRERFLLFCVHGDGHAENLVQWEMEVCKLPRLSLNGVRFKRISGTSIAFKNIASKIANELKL

Ribosomal protein S6 kinase beta-1, sequence (P23443 whole entry, looked up): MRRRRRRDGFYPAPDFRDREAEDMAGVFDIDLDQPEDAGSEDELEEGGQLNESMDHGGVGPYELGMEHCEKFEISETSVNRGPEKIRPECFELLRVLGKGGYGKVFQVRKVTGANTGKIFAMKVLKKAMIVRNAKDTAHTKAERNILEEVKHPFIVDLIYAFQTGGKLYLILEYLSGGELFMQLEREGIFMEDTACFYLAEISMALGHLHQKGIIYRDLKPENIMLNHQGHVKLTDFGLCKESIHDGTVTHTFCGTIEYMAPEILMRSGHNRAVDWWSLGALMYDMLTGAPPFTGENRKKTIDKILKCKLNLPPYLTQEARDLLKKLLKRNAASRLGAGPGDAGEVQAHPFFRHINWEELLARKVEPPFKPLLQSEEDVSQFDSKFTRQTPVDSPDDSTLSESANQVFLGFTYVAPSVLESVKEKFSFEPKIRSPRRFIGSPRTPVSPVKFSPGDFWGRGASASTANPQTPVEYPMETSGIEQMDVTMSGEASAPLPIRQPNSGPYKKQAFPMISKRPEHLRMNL
Tyrosine-protein kinase HCK (Homo sapiens), sequence (P08631 2-526 limits assumed): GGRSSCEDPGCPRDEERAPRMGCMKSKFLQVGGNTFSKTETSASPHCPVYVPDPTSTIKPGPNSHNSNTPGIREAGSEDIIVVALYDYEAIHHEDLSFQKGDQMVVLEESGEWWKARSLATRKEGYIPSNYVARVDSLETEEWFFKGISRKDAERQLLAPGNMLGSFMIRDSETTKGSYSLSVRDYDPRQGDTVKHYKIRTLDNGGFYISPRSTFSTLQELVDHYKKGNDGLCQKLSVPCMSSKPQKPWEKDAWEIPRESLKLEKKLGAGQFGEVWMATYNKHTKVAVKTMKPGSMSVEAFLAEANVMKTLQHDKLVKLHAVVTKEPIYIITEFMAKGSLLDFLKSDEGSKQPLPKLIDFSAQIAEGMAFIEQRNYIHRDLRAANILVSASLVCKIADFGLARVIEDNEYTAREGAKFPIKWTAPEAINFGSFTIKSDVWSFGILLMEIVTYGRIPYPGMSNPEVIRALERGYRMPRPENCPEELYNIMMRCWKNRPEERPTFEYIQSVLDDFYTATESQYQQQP
Myosin light chain kinase 2, skeletal/cardiac muscle (Homo sapiens), sequence (Q9H1R3 whole entry): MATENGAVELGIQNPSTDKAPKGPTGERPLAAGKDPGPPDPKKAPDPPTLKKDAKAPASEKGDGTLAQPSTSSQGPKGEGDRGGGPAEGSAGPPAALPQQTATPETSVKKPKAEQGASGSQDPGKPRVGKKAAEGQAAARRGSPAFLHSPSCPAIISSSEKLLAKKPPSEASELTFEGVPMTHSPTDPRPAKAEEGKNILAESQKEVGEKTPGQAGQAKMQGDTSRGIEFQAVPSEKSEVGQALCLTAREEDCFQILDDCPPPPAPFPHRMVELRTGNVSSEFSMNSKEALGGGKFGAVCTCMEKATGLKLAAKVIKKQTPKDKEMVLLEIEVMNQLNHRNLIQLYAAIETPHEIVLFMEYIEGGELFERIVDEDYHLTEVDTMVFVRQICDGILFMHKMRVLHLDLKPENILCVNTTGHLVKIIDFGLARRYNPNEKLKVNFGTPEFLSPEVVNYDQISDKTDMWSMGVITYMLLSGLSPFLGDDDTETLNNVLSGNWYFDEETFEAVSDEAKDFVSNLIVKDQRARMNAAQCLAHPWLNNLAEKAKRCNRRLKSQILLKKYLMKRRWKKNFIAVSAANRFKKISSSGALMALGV

On to `Cc1ccc(-c2ccc3c(ccc4sc5c(c43)NC[C@@H](C)NC5=O)n2)cn1`, for which the % of inhibition in test [1] came to 8%.

Compound `Cc1cc([C@@H](C)Nc2ccccc2C(=O)O)c2nc(N3CCOCC3)cc(=O)n2c1` [AZD-6482] had a % of control in test [2] of 100%.

Consider `Nc1cnc(N2CCc3cc(S(=O)(=O)Nc4c(F)cc(Cl)cc4F)cc(N4CCCC4=O)c32)nc1` [TP-020n], for which the figures for the % of control in test [3], in [4] and in test [5] were 87%, 75% and 100%, respectively.

In test [6], `CCC(=O)N1CCN(c2ccc(-n3c(=O)ccc4cnc5ccc(-c6cnc7ccccc7c6)cc5c43)cc2C(F)(F)F)CC1` returned a % of control of 5.2%.

With `COc1cc(Nc2nc(C)cc(-c3cnn4nc(OC)ccc34)n2)cc(C(F)(F)F)c1`, the % of control in test [7] stood at 93%; in test [8] it was 71%; in test [9], 96%.

Compound `Cc1cc(F)c(C(=O)Nc2cccc(-c3nncn3C(C)C)n2)cc1-n1cnc(C2CC2)c1` displayed a % of control in [10] of 81%.

As to `CNC(=O)Nc1ccc(-c2nc(N3CC4CCC(C3)O4)c3cnn(C4CCC5(CC4)OCCO5)c3n2)cc1`, the % of control in test [11] came out at 82%.

For the compound `COc1cc(N(C)c2ccnc3ccc(C(F)(F)F)cc23)cc(OC)c1OC`, the % binding in test [12] stood at 100%.

In test [13], `N#Cc1cccc(-c2c[nH]c3ncnc(N4CCOCC4)c23)c1` yielded a % of inhibition of 24%.
